Reference: US7915012B2, “Methods for screening for inhibitors of TRPV2 activation” (Korea University Industry and Academic Collaboration …, priority 2008, dated 2011)
Entries after “also recorded” stand apart in the source; their conditions may differ.

Columns and labels:
Format in all cases: cell-based
[1] = biological target: T1, rTRPV1 (Rattus norvegicus, UniProt O35433); assay: Fluo-3 calcium imaging in TRPV1 transfected HEK293T cell line; details: 100 μM probenecid
T1 construct: expressed in transfected cells; host or cells: HEK293T (ATCC CRL-11268)
Description: (§1) HEK293T cell line (ATCC CRL-1 1268) was transiently transfected with plasmid DNA containing polynucleotide encoding […] (SEQ. ID. NO: 1), rTRPV2 (SEQ. ID. NO: 2), mTRPV3 (SEQ. ID. NO: 3), rTRPV4 (SEQ. ID. NO: 4), mTRPM8 (SEQ. ID. NO: 5) or mTRPA1 (SEQ. ID. NO: 6).
(§2) Particularly, the HEK293T cell line was transiently transfected with individual TRP channel plasmid (pcDNA3.1 containing polynucleotide encoding rTRPV1, rTRPV2, mTRPV3, rTRPV4, mTRPM8 or mTRPA1), and 600 ng/well of pCDNA3 (Invitrogen Corp., USA; containing green fluorescent protein (GFP) cDNA) using Fugene6 (Roche Diagnostics, USA) according to manufacturer's instruction. The transformed cells were cultured in DMEM/F12 containing 10% FBS and 1% penicillin/streptomycin in a CO2 incubator for 24 hours. The cells were replated onto poly-L-lysine-coated glass coverslips, followed by further culture for 10-24 hours.
(§3) Particularly, the transfected cell line of Example <3-1> and Example <3-2> was loaded with Fluo-3AM (5 μM; Sigma Aldrich, USA) in the bath solution (140 mM NaCl, 5 mM KCl, 2 mM CaCl2, 1 mM MgCl2, 10 mM HEPES; adjusted to pH 7.4 with NaOH) containing 0.02% pluronic acid (Invitrogen, USA) at 37° C. for 1 hour. […]

[2] = biological target: T2, rTRPV2 (Rattus norvegicus, UniProt Q9WUD2, A713V/L151P/T158I); assay: Fluo-3 calcium imaging in TRPV2 transfected HEK293T cell line
T2 construct: expressed in transfected cells; host or cells: HEK293T (ATCC CRL-11268)
T2 sequence (Q9WUD2 1-761 L151P/T158I/A713V): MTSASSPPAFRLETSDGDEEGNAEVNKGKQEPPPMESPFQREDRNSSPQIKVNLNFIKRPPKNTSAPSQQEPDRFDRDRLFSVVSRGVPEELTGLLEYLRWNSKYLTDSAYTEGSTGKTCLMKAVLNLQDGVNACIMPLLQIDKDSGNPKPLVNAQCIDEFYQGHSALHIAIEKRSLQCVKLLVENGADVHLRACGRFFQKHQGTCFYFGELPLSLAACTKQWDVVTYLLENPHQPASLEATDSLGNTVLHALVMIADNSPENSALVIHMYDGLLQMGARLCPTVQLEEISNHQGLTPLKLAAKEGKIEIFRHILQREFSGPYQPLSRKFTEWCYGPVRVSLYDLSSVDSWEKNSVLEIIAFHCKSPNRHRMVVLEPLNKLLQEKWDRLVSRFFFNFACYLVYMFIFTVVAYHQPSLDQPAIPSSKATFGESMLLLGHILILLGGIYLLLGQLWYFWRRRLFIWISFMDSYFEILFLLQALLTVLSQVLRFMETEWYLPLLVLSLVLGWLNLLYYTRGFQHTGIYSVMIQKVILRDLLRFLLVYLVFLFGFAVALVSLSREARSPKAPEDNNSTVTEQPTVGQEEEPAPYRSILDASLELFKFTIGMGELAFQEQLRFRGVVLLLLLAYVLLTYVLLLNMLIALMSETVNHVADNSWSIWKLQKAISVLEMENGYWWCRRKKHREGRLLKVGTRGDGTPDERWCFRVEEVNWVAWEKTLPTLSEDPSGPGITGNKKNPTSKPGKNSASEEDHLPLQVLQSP
Description: as §1, §2
The TRPV2 transfected cell line prepared in Example 1 was treated with 100 μM probenecid and 300 μM 2-APB.
The TRPV2 transfected cell line prepared in Example 1 was treated with probenecid at different concentrations from 0.1 to 1,000 μM.
Particularly, the transfected cell line of Example <3-1> and Example <3-2> was loaded with Fluo-3AM (5 μM; Sigma Aldrich, USA) in the bath solution (140 mM NaCl, 5 mM KCl, 2 mM CaCl2, 1 mM MgCl2, 10 mM HEPES; adjusted to pH 7.4 with NaOH) containing 0.02% pluronic acid (Invitrogen, USA) at 37° C. for 1 hour. Calcium imaging was performed with a confocal microscope (LSM5 Pascal, Carl Zeiss, Germany), and time-lapse images (excitation 488 nm/emission 514 nm) were collected every 3 seconds using Carl Zeiss ratio tool software (Carl Zeiss, Germany).
The TRPA1, TRPV1, TRPV2, TRPV3, TRPV4 and TRPM8 transfected cell lines prepared by the method of Example 1 and the non-transfected HEK cell line (control group) were treated with 100 μM probenecid. Calcium imaging was performed with the transfected cell lines treated as the above by the same manner as described in Example <3-3>.

[3] = biological target: T3, mTRPV3 (Mus musculus, UniProt Q8K424, A9V); assay: Fluo-3 calcium imaging in TRPV3 transfected HEK293T cell line; details: 100 μM probenecid
T3 construct: expressed in transfected cells; host or cells: HEK293T (ATCC CRL-11268)
T3 sequence (Q8K424 1-791 A9V): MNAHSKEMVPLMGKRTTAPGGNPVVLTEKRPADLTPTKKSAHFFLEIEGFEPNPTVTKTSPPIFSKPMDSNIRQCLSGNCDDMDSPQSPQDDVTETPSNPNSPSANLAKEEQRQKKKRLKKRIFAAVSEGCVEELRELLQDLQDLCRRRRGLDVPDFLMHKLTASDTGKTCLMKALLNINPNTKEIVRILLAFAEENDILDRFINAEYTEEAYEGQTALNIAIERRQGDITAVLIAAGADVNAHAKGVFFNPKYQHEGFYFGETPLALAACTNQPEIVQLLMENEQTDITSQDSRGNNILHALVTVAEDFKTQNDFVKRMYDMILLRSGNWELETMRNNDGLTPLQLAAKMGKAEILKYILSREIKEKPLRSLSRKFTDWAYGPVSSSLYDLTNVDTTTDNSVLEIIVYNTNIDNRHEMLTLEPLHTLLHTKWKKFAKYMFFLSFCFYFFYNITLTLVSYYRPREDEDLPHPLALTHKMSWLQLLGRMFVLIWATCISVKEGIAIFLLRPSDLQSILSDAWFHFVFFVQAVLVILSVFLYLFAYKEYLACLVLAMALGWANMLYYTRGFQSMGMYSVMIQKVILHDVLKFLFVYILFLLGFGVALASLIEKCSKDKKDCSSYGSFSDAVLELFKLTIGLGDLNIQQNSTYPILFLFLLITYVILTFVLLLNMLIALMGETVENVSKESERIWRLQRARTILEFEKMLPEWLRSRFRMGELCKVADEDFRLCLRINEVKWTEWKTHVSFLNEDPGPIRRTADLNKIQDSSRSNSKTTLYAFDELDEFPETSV
Description: as §1, §2, §3

T1 sequence (O35433 whole entry): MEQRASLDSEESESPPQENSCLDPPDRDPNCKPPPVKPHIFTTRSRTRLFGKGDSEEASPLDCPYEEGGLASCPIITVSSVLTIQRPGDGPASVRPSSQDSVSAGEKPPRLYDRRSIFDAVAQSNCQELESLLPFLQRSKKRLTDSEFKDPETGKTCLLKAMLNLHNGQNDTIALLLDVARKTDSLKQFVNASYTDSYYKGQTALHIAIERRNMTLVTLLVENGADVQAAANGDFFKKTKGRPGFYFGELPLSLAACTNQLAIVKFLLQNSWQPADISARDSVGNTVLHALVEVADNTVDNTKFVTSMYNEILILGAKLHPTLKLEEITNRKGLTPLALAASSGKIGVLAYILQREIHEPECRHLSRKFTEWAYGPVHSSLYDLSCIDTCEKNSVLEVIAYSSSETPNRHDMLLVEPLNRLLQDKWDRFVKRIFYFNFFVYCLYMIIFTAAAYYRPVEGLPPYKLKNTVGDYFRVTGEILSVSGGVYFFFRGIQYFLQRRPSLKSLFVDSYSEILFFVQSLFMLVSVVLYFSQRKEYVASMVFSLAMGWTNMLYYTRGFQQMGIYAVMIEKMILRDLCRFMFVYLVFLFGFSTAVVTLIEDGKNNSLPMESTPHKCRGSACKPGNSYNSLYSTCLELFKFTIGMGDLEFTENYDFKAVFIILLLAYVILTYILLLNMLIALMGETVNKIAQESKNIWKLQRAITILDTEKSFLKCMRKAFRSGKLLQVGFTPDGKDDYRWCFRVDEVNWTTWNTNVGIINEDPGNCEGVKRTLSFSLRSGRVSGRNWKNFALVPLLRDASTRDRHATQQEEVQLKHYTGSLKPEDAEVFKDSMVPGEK

Structure (SMILES): CCCN(CCC)S(=O)(=O)c1ccc(C(=O)O)cc1 [probenecid]
- TRPV1 activation (calcium imaging) [1]: only TRPV2 was activated; also recorded: not confirmed
- TRPV2 activation (calcium imaging) ([2]; 100 μM probenecid): activated
- n (Hill plot of calcium influx responses) ([2]; n=12-62 per experimental value): 2.8
- Kd ([2]; n=12-62 per experimental value, read-out: Kd (Hill plot of calcium influx responses)): 31.9 µM
- maximal effective dose ([2]; probenecid 0.1 to 1,000 μM, calcium influx): about 1 mM
- EC50 ([2]; probenecid 0.1 to 1,000 μM, calcium influx, read-out: EC50 (effective concentration 50%) on TRPV2): 31.9 µM
- TRPV3 activation (calcium imaging) [3]: only TRPV2 was activated; also recorded: not confirmed
